Test systems include BT-549 breast; MDA-N; HT29 colon; SK-MEL-5 melanoma; MDA-MB-435; SF-295 CNS; PC-3 prostate; HS 578T breast; NCI-H23 lung; OVCAR-3 ovarian; ACHN renal.
What all share (assay): inhibition of tumour cell growth, NCI panel, 48 h

Where “and” joins values, the source holds several entries; their conditions need not be identical. Equal values may be shown once.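 These data come from cells grown in 96-well plates and exposed to compound for 48 hours at five concentrations. GI50: concentration for 50% inhibition of growth. The concentration for full growth arrest is given as TGI.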 Bounds are passed on as bounds.

`CN1C[C@@H]2CCCN2P1Oc1cccc2cccnc12` (stereo not given in full): the TGI in the test on BT-549 breast, with MDA-N, in the test on HT29 colon, in the test on SK-MEL-5 melanoma, in the test with MDA-MB-435 and in the test with SF-295 CNS was > 100 µM throughout. Besides, the TGI in the test on PC-3 prostate was > 100 µM; in the test on HS 578T breast, 68.1 µM; in the test with NCI-H23 lung it was 57.7 µM; with OVCAR-3 ovarian, 90.2 µM; in the test with ACHN renal, > 100 µM.

In the case of `NC(=O)N(O)c1cccc(Br)c1`, the TGI with BT-549 breast, in the test on MDA-N, with HT29 colon, with SK-MEL-5 melanoma, in the test on MDA-MB-435 and in the test on SF-295 CNS was > 100 µM each time. Also, the TGI in the test with PC-3 prostate, in the test with HS 578T breast, in the test with NCI-H23 lung, with OVCAR-3 ovarian and in the test on ACHN renal was > 100 µM in each case.

Consider `C[C@@H]1OC(=O)C[C@H]2CC(=O)N(CCc3cn(S(=O)(=O)C(F)(F)F)c4ccccc34)C[C@@H]21`, for which the TGI with BT-549 breast, in the test with MDA-N, with HT29 colon, in the test on SK-MEL-5 melanoma, with MDA-MB-435 and with SF-295 CNS was > 100 µM each time. Besides, the TGI in the test with PC-3 prostate, in the test with HS 578T breast, in the test on NCI-H23 lung, in the test with OVCAR-3 ovarian and with ACHN renal was > 100 µM in each case.

In the case of `CCC(=O)NCCc1c[nH]c2ccc(OC)cc12`, the TGI with BT-549 breast, with MDA-N, in the test on HT29 colon, in the test on SK-MEL-5 melanoma, in the test with MDA-MB-435 and in the test on SF-295 CNS was > 100 µM each time. The TGI in the test with PC-3 prostate, in the test with HS 578T breast, in the test with NCI-H23 lung, with OVCAR-3 ovarian and in the test with ACHN renal was > 100 µM throughout.

With `CC(Cc1ccc(O)c(O)c1)C(C)Cc1ccc(O)c(O)c1` (stereo not given), the TGI was 26.8 µM in the test with BT-549 breast; 26.3 µM in the test with MDA-N; 51.5 µM in the test on HT29 colon; 32.9 µM in the test with SK-MEL-5 melanoma; 28.3 µM with MDA-MB-435; 43 µM with SF-295 CNS. Also, the TGI in the test on PC-3 prostate was > 79.6 µM; with HS 578T breast it was 52.5 µM; in the test with NCI-H23 lung, 46.6 µM; in the test with OVCAR-3 ovarian, 27.4 µM; in the test on ACHN renal, 33.5 µM.

As for `CCOC(=O)c1nc2cc(C(F)(F)F)ccc2nc1Nc1ccc(Cl)c(Cl)c1`, the TGI with BT-549 breast, in the test with MDA-N, in the test with HT29 colon, with SK-MEL-5 melanoma, in the test on MDA-MB-435 and in the test with SF-295 CNS was > 100 µM each time. The TGI with PC-3 prostate, with HS 578T breast, in the test with NCI-H23 lung, in the test with OVCAR-3 ovarian and with ACHN renal was > 100 µM throughout.

For `Clc1nc2c(-c3cccs3)ncnc2n1Cc1ccccc1`, the TGI is > 81.8 µM with BT-549 breast; > 100 µM with MDA-N; > 100 µM in the test with HT29 colon; > 100 µM in the test on SK-MEL-5 melanoma; > 100 µM in the test with MDA-MB-435; > 100 µM in the test with SF-295 CNS. For the same compound, the TGI was > 76.4 µM in the test with PC-3 prostate; 87.8 µM with HS 578T breast; > 100 µM in the test with NCI-H23 lung; 49.8 µM in the test with OVCAR-3 ovarian; 4.36 µM in the test with ACHN renal.

On to `CSc1c(C#N)c2n(c3ccccc3[n+]2C)c2ncccc12`, for which the TGI in the test with BT-549 breast was 70.5 µM; in the test on MDA-N it was 58.6 µM; in the test with HT29 colon, > 100 µM; in the test with SK-MEL-5 melanoma, 30.5 µM; with MDA-MB-435, > 100 µM; with SF-295 CNS it was > 100 µM. For the same compound, the TGI in the test on PC-3 prostate was 45.3 µM; in the test with HS 578T breast it was > 100 µM; in the test on NCI-H23 lung, 51.6 µM; in the test on OVCAR-3 ovarian it was 71.7 µM; in the test with ACHN renal, > 100 µM.

Take `O=C1OC(CN2CCN(c3ccccc3)CC2)CN1C(=S)Nc1ccccc1` (stereo not given): the TGI in the test with BT-549 breast, with MDA-N, in the test on HT29 colon, in the test with SK-MEL-5 melanoma, in the test on MDA-MB-435 and in the test with SF-295 CNS was > 100 µM each time. For the same compound, the TGI in the test on PC-3 prostate, in the test on HS 578T breast, in the test on NCI-H23 lung, with OVCAR-3 ovarian and in the test on ACHN renal was > 100 µM in each case.

Consider `CN(/N=C\c1ccc2ccccc2c1)C1=NCCCCN1`, for which the TGI was determined as 46.8 µM in the test with BT-549 breast; 31.2 µM with MDA-N; 38.2 µM in the test on HT29 colon; 27.3 µM in the test with SK-MEL-5 melanoma; 38.1 µM in the test with MDA-MB-435; 33.5 µM with SF-295 CNS. The TGI in the test on PC-3 prostate was 36 µM; with HS 578T breast, 62.3 µM; in the test on NCI-H23 lung, > 100 µM; in the test on OVCAR-3 ovarian it was > 100 µM; with ACHN renal, > 100 µM.

Consider `NNC(=O)c1n[nH]nc1SSc1n[nH]nc1C(=O)NN`, for which the TGI with BT-549 breast, in the test with MDA-N, in the test with HT29 colon, in the test on SK-MEL-5 melanoma, in the test on MDA-MB-435 and in the test with SF-295 CNS was > 100 µM throughout. Moreover, the TGI in the test with PC-3 prostate, with HS 578T breast, in the test on NCI-H23 lung, in the test on OVCAR-3 ovarian and in the test with ACHN renal was > 100 µM each time.

Take `O=C(C1OC1c1ccc([N+](=O)[O-])cc1)C12CC3CC(CC(C3)C1)C2` (stereo not given): the TGI with BT-549 breast came to 40.2 µM; in the test on MDA-N, 24.3 µM; with HT29 colon it was 47.7 µM; in the test on SK-MEL-5 melanoma, 29.1 µM; in the test on MDA-MB-435 it was 28.4 µM; with SF-295 CNS, 30.8 µM. For the same compound, the TGI in the test with PC-3 prostate is 28.1 µM; with HS 578T breast, 50.3 µM; with NCI-H23 lung, 27.2 µM; in the test with OVCAR-3 ovarian, 27 µM; in the test on ACHN renal, 34 µM.

In the case of `C=C(Cl)C(Cl)(CBr)CCC(Cl)C(C)(C)Cl` (stereo not given), the TGI was 20.1 µM with BT-549 breast; 7.55 µM in the test with MDA-N; 0.968 µM with HT29 colon; 24.7 µM in the test on SK-MEL-5 melanoma; 8.21 µM with MDA-MB-435; 7.73 µM in the test on SF-295 CNS. The TGI stood at 3.36 µM in the test with PC-3 prostate; 0.284 µM in the test on HS 578T breast; 34.3 µM with NCI-H23 lung; 3.34 µM in the test with OVCAR-3 ovarian; 3.9 µM in the test with ACHN renal.

On to `COC(=O)CCCCC/C(=C\C(=O)C(Cl)(Cl)Cl)OC`, for which the TGI is > 100 µM in the test with BT-549 breast; 71.3 µM in the test with MDA-N; 72.6 µM with HT29 colon; > 100 µM with SK-MEL-5 melanoma; 64.7 µM with MDA-MB-435; > 100 µM with SF-295 CNS. For the same compound, the TGI in the test with PC-3 prostate was 77.9 µM; with HS 578T breast, 97.1 µM; in the test on NCI-H23 lung, > 100 µM; with OVCAR-3 ovarian, 70.4 µM; with ACHN renal, > 100 µM.

Consider `CC/C(Cl)=N\OC(=O)Nc1ccc(C#N)cc1`, for which the TGI with BT-549 breast was 28.3 µM; in the test with MDA-N, 30 µM; in the test with HT29 colon, 36.9 µM; with SK-MEL-5 melanoma, 25.9 µM; with MDA-MB-435 it was 29.4 µM; with SF-295 CNS, 33 µM. Further, the TGI in the test with PC-3 prostate was determined as 30.5 µM; with HS 578T breast, 57.8 µM; in the test on NCI-H23 lung it was 32 µM; in the test on OVCAR-3 ovarian, 32.7 µM; in the test with ACHN renal, 27.4 µM.

Regarding `CC(C)(C)OC(=O)NC(Cc1ccc([N+](=O)[O-])cc1)C(=O)NC(CCCCNC(=O)OCc1ccccc1)C(=O)ON1C(=O)CCC1=O` (stereo not given), the TGI with BT-549 breast, in the test on MDA-N, in the test on HT29 colon, with SK-MEL-5 melanoma, in the test with MDA-MB-435 and in the test with SF-295 CNS was > 100 µM in each case. Besides, the TGI with PC-3 prostate, with HS 578T breast, with NCI-H23 lung, in the test with OVCAR-3 ovarian and in the test with ACHN renal was > 100 µM in each case.

As to `Cc1ccc(C2=Nc3c(N)nc(N)nc3NC(c3ccccc3)C2)cc1` (stereo not given), the TGI is 22 µM and 23.6 µM with BT-549 breast; 5.64 µM and 5.72 µM in the test on MDA-N; 14.1 µM and 14.8 µM in the test with HT29 colon; 34.4 µM in the test on SK-MEL-5 melanoma; 7.25 µM and 6.01 µM with MDA-MB-435; 17.9 µM and 23.8 µM with SF-295 CNS. Further, the TGI in the test with PC-3 prostate is 22.9 µM and 24 µM; with HS 578T breast, 33.9 µM and 41.1 µM; with NCI-H23 lung, 24.1 µM and 25.6 µM; with OVCAR-3 ovarian it was 24.8 µM and 24.9 µM; in the test on ACHN renal, 28.8 µM and 32 µM. Besides, in the test with SF-295 CNS, the GI50 was 4.9 µM and 10.5 µM.

For the compound `O=C(O)CCC1(c2ccccc2)NC(=O)NC1=O` (stereo not given), the TGI in the test on BT-549 breast, in the test on MDA-N, with HT29 colon, in the test with SK-MEL-5 melanoma, with MDA-MB-435 and in the test on SF-295 CNS was > 100 µM each time. In addition, the TGI in the test with PC-3 prostate, with HS 578T breast, in the test with NCI-H23 lung, in the test with OVCAR-3 ovarian and in the test on ACHN renal was > 100 µM throughout.

Consider `CC(C)(C)/C(O)=C\c1nc2cc(C(F)(F)F)ccc2[nH]c1=O`, for which the TGI in the test with BT-549 breast, in the test with MDA-N, in the test with HT29 colon, with SK-MEL-5 melanoma, in the test on MDA-MB-435 and with SF-295 CNS was > 100 µM throughout. In addition, the TGI in the test with PC-3 prostate, in the test with HS 578T breast, with NCI-H23 lung, in the test on OVCAR-3 ovarian and in the test with ACHN renal was > 100 µM throughout.
